Measured values taken from US9914730B2, “Azaquinazoline inhibitors of Atypical protein Kinase C” (Ignyta, Inc., priority 2012, dated 2018).

molecular target: T1, full-length human PKCι (Homo sapiens, UniProt P41743); assay: PKCι IC50 IMAP assay, full-length PKCι at 150 μM ATP; format: biochemical; settings: read-out: IC50 in IMAP assay against full length PKCi at 150 μM ATP
T1 construct: Recombinant, full-length human PKCι expressed in Sf21 insect cells is also commercially available; purchased; host or cells: Sf21 insect cells
T1 sequence (P41743 1-596): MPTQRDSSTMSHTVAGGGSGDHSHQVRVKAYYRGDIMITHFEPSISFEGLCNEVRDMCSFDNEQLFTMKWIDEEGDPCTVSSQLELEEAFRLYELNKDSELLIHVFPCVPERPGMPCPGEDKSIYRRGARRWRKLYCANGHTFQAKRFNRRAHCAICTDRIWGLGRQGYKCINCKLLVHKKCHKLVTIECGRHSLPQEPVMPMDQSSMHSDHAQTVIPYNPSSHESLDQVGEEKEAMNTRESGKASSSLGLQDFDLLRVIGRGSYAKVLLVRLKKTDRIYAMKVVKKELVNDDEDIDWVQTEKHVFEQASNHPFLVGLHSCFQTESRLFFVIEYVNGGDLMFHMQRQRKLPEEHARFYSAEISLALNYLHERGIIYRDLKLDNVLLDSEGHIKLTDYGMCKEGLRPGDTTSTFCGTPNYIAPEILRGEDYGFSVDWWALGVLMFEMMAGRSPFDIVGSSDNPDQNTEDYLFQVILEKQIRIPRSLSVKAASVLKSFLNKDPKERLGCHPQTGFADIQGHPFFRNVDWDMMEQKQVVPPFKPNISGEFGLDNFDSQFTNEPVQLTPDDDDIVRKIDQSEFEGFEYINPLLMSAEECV
From the text: Assays are based on the ability of PKCι to phosphorylate a commercially available peptide substrate in vitro. The peptide substrate is FAM-PKCε pseudopeptide derived peptide, and comprises the amino acid sequence 5FAM-[…]-NH2. Recombinant, full-length human PKCι expressed in Sf21 insect cells is also commercially available. Recombinant, kinase-domain human PKCι is expressed and purified in-house.
The procedure below explains how dose response curves for inhibitors of PKCι are obtained. The screen described is for a 384 well format but the assay can be adapted to 1536 or other formats as required.
Compounds to be tested are dissolved in 100% DMSO. Compounds are diluted as required to give a final concentration of 4% DMSO (v/v) in the assay. 1 μl is plated into 384 well black low-binding flat bottomed assay plates which are used immediately. Dilutions and additions of compound to assay plates are carried out using Matrix WellMate® and Matrix PlateMate® Plus liquid handling systems.
On the day of the screen PKCι/substrate working solution, and ATP working solution, are prepared in buffer containing 20 mM tris-HCl pH7.5, 10 mM MgCl2, 0.01% Triton X100, 250 μM EGTA and 1 mM DTT. The final concentration of PKCι used varies depending on the batch of protein but is typically 15 pM. The final concentration of peptide substrate in the assay is 100 nM. ATP is used at a final concentration of 150 μM or 25 μM in the assays containing full-length or kinase-domain PKCι respectively, which corresponds to five times or equal to the KM^APP for ATP for each enzyme, respectively. The final buffer concentration in the assay is 18 mM tris-HCl pH7.5, 9 mM MgCl2, 0.009% Triton X100, 225 μM EGTA and 0.9 mM DTT. Relevant controls are included, namely no compound and no enzyme. 5 μl PKCι/substrate working solution at 30 pM and 200 nM, respectively, is added to the wells, followed by 4 μl ATP working solution at 375 μM or 62.5 μM for full-length or kinase-domain PKCι respectively, using a 16 channel Matrix pipette. The reaction is allowed to incubate for 60 minutes at room temperature, before the reaction is stopped and developed by the addition of 20 μl IMAP™ development reagent (Molecular Devices). IMAP development reagent consists of 0.25% (v/v) IMAP progressive binding reagent, 17% (v/v) IMAP progressive binding buffer A and 3% (v/v) IMAP progressive binding buffer B. The plates are then incubated for 2 hours at room temperature before being read using an appropriate plate reader, for example a Molecular Devices HT Analyst or a BMG Pherastar. Plates are read using a fluorescence polarisation protocol with excitation at 485 nm and emission at 530 nm, and dichroic mirror at 505 nm.
Percentage inhibition values are calculated from fluorescence polarisation values, using the no compound and no enzyme control values as 0% and 100% inhibition, respectively. IC50 determination is performed with ExcelFit software (IDBS) using curve fit 205. Z′ factors are determined for each plate tested and are all above 0.5.

Row | IC50 [nM] | SMILES
1 | 100 to 1000 | COc1cncc2nc(-c3ccnc(Nc4ccccc4)c3)nc(N3CCC(O)C(O)C3)c12 (single isomer, unassigned) [Example 457, (3R,4R)-1-[5-Methoxy-2-(2-phenylamino-pyridin-4-yl)-pyrido[3,4-d]pyrimidin-4-yl]-piperidine-3,4-diol or (3S,4S)-1-[5-Methoxy-2-(2-phenylamino-pyridin-4-yl)-pyrido[3,4-d]pyrimidin-4-yl]-piperidine-3,4-diol]
2 | 1000 to 10000 | COc1cncc2nc(-c3ccnc(Nc4ccccc4)c3)nc(N3CCC(O)C(O)C3)c12 (single isomer, unassigned) [Example 463, (3R,4S)-1-[5-Methoxy-2-(2-phenylamino-pyridin-4-yl)-pyrido[3,4-d]pyrimidin-4-yl]-piperidine-3,4-diol or (3S,4R)-1-[5-Methoxy-2-(2-phenylamino-pyridin-4-yl)-pyrido[3,4-d]pyrimidin-4-yl]-piperidine-3,4-diol]
3 | 100 to 1000 | COc1cncc2nc(-c3ccnc(Nc4ccccc4)c3)nc(N3CCC(O)C(O)C3)c12 (single isomer, unassigned) [Example 464, (3S,4R)-1-[5-Methoxy-2-(2-phenylamino-pyridin-4-yl)-pyrido[3,4-d]pyrimidin-4-yl]-piperidine-3,4-diol or (3R,4S)-1-[5-Methoxy-2-(2-phenylamino-pyridin-4-yl)-pyrido[3,4-d]pyrimidin-4-yl]-piperidine-3,4-diol]
4 | < 100 | CC(C)(O)C#Cc1nccc2c(NCC(N)Cc3ccccc3)nc(-c3ccncc3)nc12 (stereo in doubt) [Example 131, 4-(4-{[(2S)-2-amino-3-phenylpropyl]amino}-2-(pyridin-4-yl)pyrido[3,4-d]pyrimidin-8-yl)-2-methylbut-3-yn-2-ol]
5 | 100 to 1000 | c1cc(-c2nc(N3CCNCC3)c3ccncc3n2)ccn1 [Example 1, 1-[2-(pyridin-4-yl)pyrido[3,4-d]pyrimidin-4-yl]piperazine]
6 | 10000 to 40000 | NCCNc1nc(-c2ccncc2)nc2cnccc12 [Example 3, N-(2-aminoethyl)-2-(pyridin-4-yl)-pyrido[3,4-d]-pyrimidin-4-amine]
7 | 1000 to 10000 | C[C@@H](N)CNc1nc(-c2ccncc2)nc2cnccc12 [Example 4, N-[(2R)-2-aminopropyl)-2-(pyridin-4-yl)pyrido[3,4-d]-pyrimidin-4-amine]
8 | 10000 to 40000 | C[C@H](N)CNc1nc(-c2ccncc2)nc2cnccc12 [Example 5, N-[(2S)-2-aminopropyl]-2-(pyridin-4-yl)pyrido[3,4-d]-pyrimidin-4-amine]
9 | < 100 | N[C@H](CNc1nc(-c2ccncc2)nc2cnccc12)Cc1ccccc1 [Example 6, N-[(2S)-2-amino-3-phenylpropyl]-2-(pyridin-4-yl)pyrido[3,4-d]-pyrimidin-4-amine]
10 | < 100 | c1cc(-c2nc(N[C@@H]3CCNC3)c3ccncc3n2)ccn1 [Example 7, (3R)-N-[2-(pyridin-4-yl)pyrido[3,4-d]-pyrimidin-4-yl]-pyrrolidin-3-amine]
11 | < 100 | COc1cncc2nc(-c3ccncc3)nc(NC[C@@H](N)Cc3ccccc3)c12 [Example 9, N-[(2S)-2-amino-3-phenylpropyl]-5-methoxy-2-(pyridin-4-yl)pyrido[3,4-d]-pyrimidin-4-amine]
12 | 100 to 1000 | N[C@H](CNc1nc(-c2ccncc2F)nc2cnccc12)Cc1ccccc1 [Example 10, N-[(2S)-2-amino-3-phenylpropyl]-2-(3-fluoropyridin-4-yl)pyrido[3,4-d]-pyrimidin-4-amine]

Further lines, the molecule ahead of its results:

Row | SMILES | IC50 [nM]
13 | COc1cncc2nc(-c3ccnc(Nc4ccccc4)c3)nc(N3CCC(O)C(O)C3)c12 (single isomer, unassigned) [Example 456, (3S,4S)-1-[5-Methoxy-2-(2-phenylamino-pyridin-4-yl)-pyrido[3,4-d]pyrimidin-4-yl]-piperidine-3,4-diol or (3R,4R)-1-[5-Methoxy-2-(2-phenylamino-pyridin-4-yl)-pyrido[3,4-d]pyrimidin-4-yl]-piperidine-3,4-diol] | 100 to 1000
14 | CN1CCN(c2cccc(Nc3cc(-c4nc(N5CCC(O)C(O)C5)c5c(C6CC6)cncc5n4)ccn3)c2)CC1 (single isomer, unassigned) [Example 751, (3R,4S or 3R,4S)-1-(5-Cyclopropyl-2-{2-[3-(4-methyl-piperazin-1-yl)-phenylamino]-pyridin-4-yl}-pyrido[3,4-d]pyrimidin-4-yl)-piperidine-3,4-diol] | < 100
15 | CN1CCN(c2cccc(Nc3cc(-c4nc(N5CCC(O)C(O)C5)c5c(C6CC6)cncc5n4)ccn3)c2)CC1 (single isomer, unassigned) [Example 752, (3R,4S or 3R,4S)-1-(5-Cyclopropyl-2-{2-[3-(4-methyl-piperazin-1-yl)-phenylamino]-pyridin-4-yl}-pyrido[3,4-d]pyrimidin-4-yl)-piperidine-3,4-diol] | < 100
16 | CN1CCN(c2cccc(Nc3cc(-c4nc(N5CCC(O)C(O)C5)c5c(C6CC6)cncc5n4)ccn3)c2)CC1 (single isomer, unassigned) [Example 753, (3S,4S or 3R,4R)-1-(5-Cyclopropyl-2-{2-[3-(4-methyl-piperazin-1-yl)-phenylamino]-pyridin-4-yl}-pyrido[3,4-d]pyrimidin-4-yl)-piperidine-3,4-diol] | < 100
17 | CN1CCN(c2cccc(Nc3cc(-c4nc(N5CCC(O)C(O)C5)c5c(C6CC6)cncc5n4)ccn3)c2)CC1 (single isomer, unassigned) [Example 754, (3S,4S or 3R,4R)-1-(5-Cyclopropyl-2-{2-[3-(4-methyl-piperazin-1-yl)-phenylamino]-pyridin-4-yl}-pyrido[3,4-d]pyrimidin-4-yl)-piperidine-3,4-diol] | < 100
18 | N#Cc1ccnc(Nc2cc(-c3nc(N4CC[C@H](O)[C@H](O)C4)c4c(C5CC5)cncc4n3)ccn2)c1 (stereo in doubt) [Example 487, 2-{4-[5-Cyclopropyl-4-((3R,4S)-3,4-dihydroxy-piperidin-1-yl)-pyrido[3,4-d]pyrimidin-2-yl]-pyridin-2-ylamino}-isonicotinonitrile] | < 100
19 | N#Cc1ccnc(Nc2cc(-c3nc(N4CC[C@@H](O)[C@@H](O)C4)c4c(C5CC5)cncc4n3)ccn2)c1 (stereo in doubt) [Example 488, 2-{4-[5-Cyclopropyl-4-((3S,4R)-3,4-dihydroxy-piperidin-1-yl)-pyrido[3,4-d]pyrimidin-2-yl]-pyridin-2-ylamino}-isonicotinonitrile] | 100 to 1000
20 | FC(F)(F)c1cc2c(-c3nc(NC4CCNC4)c4c(C5CC5)cncc4n3)ccnc2[nH]1 (stereo in doubt) [Example 2069, [5-Cyclopropyl-2-(2-trifluoromethyl-1H-pyrrolo[2,3-b]pyridin-4-yl)-pyrido[3,4-d]pyrimidin-4-yl]-(R)-pyrrolidin-3-yl-amine] | < 100
21 | COc1cncc2nc(-c3ccncc3)nc(N[C@@H]3CCNC3)c12 [Example 2, (5-Methoxy-2-pyridin-4-yl-pyrido[3,4-d]pyrimidin-4-yl)-(R)-pyrrolidin-3-yl-amine] | 100 to 1000
22 | Fc1cnccc1-c1nc(N[C@@H]2CCNC2)c2ccncc2n1 [Example 8, (3R)-N-[2-(3-fluoropyridin-4-yl)-pyrido[3,4-d]-pyrimidin-4-yl]-pyrrolidin-3-amine] | 100 to 1000
